How the values were obtained:
[1] = target: Photinus pyralis luciferase, wild type (Photinus pyralis, UniProt P08659); experiment: Km for substrate ATP, peak light emission (HEPES pH 7.5); type: biochemical; settings: read-out: Km for the substrate ATP; ATP 0 to 2 mM, 50 mM HEPES (pH 7.5), 0.2 mM luciferin, 10 mM MgSO4
[2] = target: T1, Luciola cruciata luciferase, wild type (Nipponoluciola cruciata, UniProt P13129); experiment: as above; type: biochemical; settings: read-out: Km for the substrate ATP; ATP 0 to 2 mM, 50 mM HEPES (pH 7.5), 0.2 mM luciferin, 10 mM MgSO4
T1 sequence (P13129 1-548): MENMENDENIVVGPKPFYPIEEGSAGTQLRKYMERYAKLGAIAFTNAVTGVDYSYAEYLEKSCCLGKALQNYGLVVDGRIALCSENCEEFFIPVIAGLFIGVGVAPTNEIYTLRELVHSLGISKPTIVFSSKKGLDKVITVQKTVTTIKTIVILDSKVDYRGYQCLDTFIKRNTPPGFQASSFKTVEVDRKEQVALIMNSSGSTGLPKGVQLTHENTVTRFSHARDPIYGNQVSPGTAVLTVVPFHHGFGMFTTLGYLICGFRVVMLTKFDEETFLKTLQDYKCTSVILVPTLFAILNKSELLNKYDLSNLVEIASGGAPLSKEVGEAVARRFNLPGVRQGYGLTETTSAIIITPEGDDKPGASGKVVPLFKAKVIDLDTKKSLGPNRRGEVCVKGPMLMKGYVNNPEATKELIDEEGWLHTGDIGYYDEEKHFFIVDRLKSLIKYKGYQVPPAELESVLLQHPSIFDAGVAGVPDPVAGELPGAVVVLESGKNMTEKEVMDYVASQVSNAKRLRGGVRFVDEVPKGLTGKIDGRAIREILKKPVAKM
Method: Then, this suspension was frozen in an ethanol/dry ice bath and then allowed to stand at a temperature of 25° C. until it was completely thawed. Further, it was centrifuged at 12,000 r.p.m. for 5 minutes whereby 20 ml crude enzyme was obtained as the supernatant. The crude enzyme solution thus obtained was purified according to the method described in Japanese Patent Laid-Open Publication 141592/1989, and the purified enzyme was designated GA1 luciferase. The Km value of this purified preparation for the substrate ATP was determined.

[3] = test system: GA1 luciferase (fusion of Luciola cruciata luciferase N-terminal portion and Photinus pyralis luciferase C-terminal portion, SEQ ID NO:5); experiment: as above; type: biochemical; settings: read-out: Km for the substrate ATP; ATP 0 to 2 mM, 50 mM HEPES (pH 7.5), 0.2 mM luciferin, 10 mM MgSO4
Method: The Km value of this purified preparation for the substrate ATP was determined. The peak of the emission of light generated by use of the enzyme with the concentration of ATP varying from 0 to 2 mM in a solution containing 50 mM HEPES (pH 7.5), 0.2 mM luciferin and 10 mM MgSO4 was measured in Luminometer ML3000 (Dynatech) and the result is shown in the table 1 below.

[4] = test system: GGA1 luciferase (fusion of thermostable Luciola cruciata luciferase N-terminal, Thr217Ile, and Photinus pyralis luciferase C-terminal, SEQ ID NO:7); type: biochemical; settings: read-out: Km for the substrate ATP; purified GGA1 enzyme, Table 2
Method: E. coli JM109 (pGGA1) was inoculated on an LB-amp agar plate [1% (W/V) Bacto-trypton, 0.5% (W/V) yeast extract, 0.5% (W/V) NaCl, (50 a g/ml) ampicillin and 1.4% (W/V) agar] and cultured at 37° C. The colonies appearing 16 hours thereafter were cultured at 37° C. for 18 hours under shaking in 10 ml of an LB-amp medium [1% (W/V) Bacto-trypton, 0.5% (W/V) yeast extract, 0.5% (W/V) NaCl and (50 μ g/ml) ampicillin]. This culture, 10 ml, was inoculated into 2 L of the above LB-amp medium and cultured at 30 ° C. for 6 hours under shaking and then centrifuged at 8000 r.p.m. for 10 minutes to give 30 g wet microbial pellet. The recovered microorganism was suspended in 20 ml buffer consisting of 0.1 M KH2 PO4 (pH 7.8), 2 mM EDTA, 1 mM dithiothreitol and 0.2 mg/ml protamine sulfate, and 2 ml of 10 mg/ml lysozyme solution was further added thereto and the mixture was allowed to stand on ice for 15 minutes. Then, this suspension was frozen in an ethanol/dry ice bath and then allowed to stand at a temperature of 25° C. until it was completely thawed. Further, it was centrifuged at 12,000 r.p.m. for 5 minutes whereby 20 ml crude enzyme was obtained as the supernatant. […]
The Km value of this purified GGA1 enzyme for the substrate ATP was determined (Table 2).

[5] = target: Photinus pyralis luciferase (Photinus pyralis, UniProt P08659); experiment: Km for substrate ATP, peak light emission (Tricine pH 7.8); type: biochemical; settings: read-out: Km (affinity for ATP); ATP 0 to 2 mM, 50 mM Tricine buffer (pH 7.8), 0.2 mM luciferin, 10 mM MgSO4
Sequence of Photinus pyralis luciferase (P08659 whole entry): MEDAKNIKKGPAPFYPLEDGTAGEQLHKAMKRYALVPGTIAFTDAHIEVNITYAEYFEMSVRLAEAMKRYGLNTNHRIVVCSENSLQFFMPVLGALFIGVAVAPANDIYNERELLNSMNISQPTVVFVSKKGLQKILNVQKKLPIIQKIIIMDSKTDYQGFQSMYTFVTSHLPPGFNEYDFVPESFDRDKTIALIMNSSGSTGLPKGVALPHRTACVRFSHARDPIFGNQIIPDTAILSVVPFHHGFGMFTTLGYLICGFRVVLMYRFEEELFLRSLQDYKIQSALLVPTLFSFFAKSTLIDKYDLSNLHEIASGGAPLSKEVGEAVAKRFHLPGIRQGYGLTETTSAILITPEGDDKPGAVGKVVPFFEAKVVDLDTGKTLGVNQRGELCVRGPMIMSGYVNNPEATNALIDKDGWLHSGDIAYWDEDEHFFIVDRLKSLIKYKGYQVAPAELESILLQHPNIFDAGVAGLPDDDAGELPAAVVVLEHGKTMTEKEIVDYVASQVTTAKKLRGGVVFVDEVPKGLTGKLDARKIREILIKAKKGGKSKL
Method: (§1) Further, its crude enzyme solution was prepared using the method described in Example 1 and the enzyme was purified in a method described in Japanese Patent Application Laid-Open Publication No. 141592/89. The purified enzyme was designated HHA1 luciferase.

[6] = test system: HHA1 luciferase (fusion of Luciola lateralis luciferase N-terminal, from pHLf7-217Leu, and Photinus pyralis luciferase C-terminal, SEQ ID NO:10); experiment: as above; type: biochemical; settings: read-out: Km (affinity for ATP); ATP 0 to 2 mM, 50 mM Tricine buffer (pH 7.8), 0.2 mM luciferin, 10 mM MgSO4
Method: 50 ng of the above EcoRV--EcoRV fragment from pT3/T7-LUC and 50 ng of the above EcoRV-NaeI fragment from pHLf7-217Leu were incubated at 15° C. for 16 hours in 20 μ l DNA ligase buffer in the presence of 300 U of T4 DNA ligase. The reaction mixture was used to transform E. coli JM 109 by the Hana-han method [DNA Cloning, 1, 109-135 (1985)], and ampicillin-resistant colonies were selected. A crude enzyme was prepared from the selected colonies in the method described in Example 1, and a plasmid was removed by the alkali-SDS method from those having luminescence activity, and the structure of the plasmid was confirmed. This plasmid was subjected to reaction with a dye primer tuck sequencing kit (Applied Biosystems) and analyzed by electrophoresis with an ABI 373A DNA sequencer (Applied Biosystems) to determine its nucleotide sequence (SEQ ID NO:9). The amino acid sequence of a polypeptide estimated to be translated from said nucleotide sequence is shown in SEQ ID NO:10. The plasmid thus obtained was designated pHHA1.
as §1

[7] = test system: GGA1 luciferase variant GGA1 T219I (219-position Thr to Ile); experiment: Catalytic efficiency (Vmax/Km) toward ATP, integrated light emission; type: biochemical, Luciola cruciata / Photinus pyralis; settings: ATP 0 to 1.0×10^-3 mM, 50 mM Tricine buffer (pH 7.8), 2.0 mM luciferin, 10 mM MgSO4; light integrated 5 to 15 seconds
Method: (§2) The resulting transformant was inoculated on an LB-amp plate [1.0% (W/V) Bacto-trypton, 0.5% (W/V) yeast extract, 0.5% (W/V) NaCl, 1.5% (W/V) agar and 50 μ g/ml ampicillin] and cultured at 37° C. for 12 hours. The resulting colonies were transferred onto a nitrocellulose filter, and said filter was immersed in 0.1 M sodium citrate buffer (pH 5.0) containing 0.5 mM luciferin [Wood & DeLuca, Anal. Biochem., 161, 501-507 (1987)]. The emission of light from said colonies was monitored, and 3 strains with raised emission could be obtained. These strains were designated E. coli JM 109 (pGGA2-1), E. coli JM 109 (pGGA1-4) and E. coli JM 109 (pGGA2-4), respectively. The E. coli JM 109 (pGGA2-1), E. coli JM 109 (pGGA1-4) and E. coli JM 109 (pGGA2-4) thus obtained have been deposited respectively as FERM BP-6206, FERM BP-6205 and FERM BP-6204 with the National Institute of Bioscience and Human-Technology, Agency of Industrial Science and Technology. Plasmids were removed from these strains by alkali-SDS method. These plasmids were subjected to reaction with a dye primer tuck sequencing kit (Applied Biosystems) and analyzed by electrophoresis with an ABI 373A DNA sequencer (Applied Biosystems) to determine their mutation sites (Table 4).
(§3) From the E. coli JM 109 (pGGA2-1), E. coli JM 109 (pGGA1-4), E. coli JM 109 (pGGA2-4), their crude enzyme solutions were extracted by the method described in Example 1, and these mutant enzymes were purified in the method described in Japanese Patent Laid-Open Publication No. 141592/1989.The purified enzymes were designated GGA1 T219I luciferase, GGA1 V290I luciferase and GGA1 V239I luciferase, respectively. […] The emission of light from 5 seconds to 15 seconds after initiation of the reaction was integrated in Luminometer ML3000 (Dynatech) to determine catalytic efficiency (Vmax/Km). As shown in the table below, it was confirmed that as compared with the GGA1 luciferase, catalytic efficiency was improved by mutating each of the amino acids at the 219-, 290-, and 239-positions.

[8] = test system: GGA1 luciferase variant GGA1 V239I (239-position Val to Ile); experiment: as above; type: biochemical, Luciola cruciata / Photinus pyralis; settings: ATP 0 to 1.0×10^-3 mM, 50 mM Tricine buffer (pH 7.8), 2.0 mM luciferin, 10 mM MgSO4; light integrated 5 to 15 seconds
Method: as §2, §3

[9] = test system: GGA1 luciferase variant GGA1 V290I (290-position Val to Ile); experiment: as above; type: biochemical, Luciola cruciata / Photinus pyralis; settings: ATP 0 to 1.0×10^-3 mM, 50 mM Tricine buffer (pH 7.8), 2.0 mM luciferin, 10 mM MgSO4; light integrated 5 to 15 seconds
Method: as §2, §3

[10] = substrate: Nc1ncnc2c1ncn2[C@@H]1O[C@H](COP(=O)(O)OP(=O)(O)OP(=O)(O)O)[C@@H](O)[C@H]1O; experiment: cells, lysate or membranes named; type: biochemical, Luciola lateralis; settings: other: ATP 0 to 2 mM, 50 mM Tricine buffer (pH 7.8), 0.2 mM luciferin, 10 mM MgSO4
Method: as §1

Sequence of Photinus pyralis luciferase, wild type (P08659 whole entry): as above

## Nc1ncnc2c1ncn2[C@@H]1O[C@H](COP(=O)(O)OP(=O)(O)OP(=O)(O)O)[C@@H](O)[C@H]1O [ATP]
[1]
  Km: 152 µM
[2]
  Km: 301 µM
[3]
  Km: 26.5 µM
[4]
  Km: 104 µM
[5]
  Km: 161 µM
[6]
  Km: 123 µM
[7]
  Vmax/Km toward the substrate ATP: 2.16 × 10^9 RLU/mg
[8]
  Vmax/Km toward the substrate ATP: 1.58 × 10^9 RLU/mg
[9]
  Vmax/Km toward the substrate ATP: 1.70 × 10^9 RLU/mg

B1: Luciola lateralis luciferase (Aquatica lateralis) (protein)
chain: MENMENDENIVYGPEPFYPIEEGSAGAQLRKYMDRYAKLGAIAFTNALTGVDYTYAEYLEKSCCLGEALKNYGLVVDGRIALCSENCEEFFIPVLAGLFIGVGVAPTNEIYTLRELVHSLGISKPTIVFSSKKGLDKVITVQKTVTAIKTIVILDSKVDYRGYQSMDNFIKKNTPQGFKGSSFKTVEVNRKEQVALIMNSSGSTGLPKGVQLTHENAVTRFSHARDPIYGNQVSPGTAILTVVPFHHGFGMFTTLGYLTCGFRIVMLTKFDEETFLKTLQDYKCSSVILVPTLFAILNRSELLDKYDLSNLVEIASGGAPLSKEIGEAVARRFNLPGVRQGYGLTETTSAIIITPEGDDKPGASGKVVPLFKAKVIDLDTKKTLGPNRRGEVCVKGPMLMKGYVDNPEATREIIDEEGWLHTGDIGYYDEEKHFFIVDRLKSLIKYKGYQVPPAELESVLLQHPNIFDAGVAGVPDPIAGELPGAVVVLEKGKSMTEKEVMDYVASQVSNAKRLRGGVRFVDEVPKGLTGKIDGKAIREILKKPVAKM
[10]
  Km: 197 µM

From US6074859A, “Mutant-type bioluminescent protein, and process for producing the mutant-type bioluminescent protein” (Kikkoman Corporation, priority 1998, dated 2000)
